{"source": "patent US6711436B1", "about": "“Compositions, apparatus and methods for facilitating surgical procedures” (priority 1997, dated 2004)", "tested_on": "heart", "test": "In vivo swine study of carbachol alone vs carbachol plus propranolol, intracoronary, to induce ventricular asystole", "conditions": "individual swine", "procedure": "Eleven male crossbred swine weighing 20-25 kg were studied, eight of which received carbachol alone and three of which received carbachol plus propranolol. The swine were sedated using 10 mg/kg IV ketamine. After 20 minutes, the animals were induced with 10 mg/kg IV thiopental sodium and orotracheally intubated. The proper anesthetic plane was maintained with 1% Isoflurane. Periodic arterial blood gas samples were obtained to guide ventilator management. The electrocardiograph was continuously monitored. Through a 7 Fr sheath in the left femoral artery, arterial blood samples were obtained and a micromanometer was inserted to monitor central aortic blood pressure (Millar Instruments, Inc., Houston, Tex.). The heart was exposed through a median sternotomy and suspended in a pericardial cradle. Two temporary epicardial pacing wires were affixed to the right ventricle and connected to an external pacemaker (Medtronic, Inc., Minneapolis, Minn.). The pacemaker was modified to permit deactuation by means of depressing a foot pedal. Through the femoral sheath, an AR-1 guide (Cordis Corp., Miami Lakes, Fla.) was placed into the right coronary artery. An 0.014-inch floppy guide wire was then advanced into the right coronary artery to the level of the posterior descending coronary artery. The AR-1 guide was removed and a 2.5 Fr Tracker (Cordis Corp., Miami Lakes, Fla.) catheter was inserted over the guide wire. Using dye injection, the catheter was positioned just proximal to the take-off of the atrioventricular node artery. Carbachol (Sigma St. Louis, Mo.) solution was prepared the day of the experiment and infused at a constant rate using a Harvard pump.\nAnimals received either carbachol alone or carbachol in combination with propranolol (Inderal®, Wyeth Ayerst, Philadelphia, Pa.). All animals were instrumented and allowed 10 minutes of hemodynamic stability. Before carbachol was administered, each subject received a 500 ml IV bolus of 0.9% sodium chloride.\nIn the animals receiving carbachol plus propranolol, a 1 mg dose of propranolol (0.04-0.05 mg/kg) was administered through the Tracker catheter. Carbachol was then administered as a 0.5 mg intracoronary bolus (0.02 mg/kg) followed by a constant infusion. […] After carbachol-mediated ventricular asystole was observed, the heart was paced at 100 beats/minute. […] The systolic blood pressure (SBP), diastolic blood pressure (DBP), and […] arterial pressure (MAP) were recorded every five minutes. The duration of ventricular asystole, defined in this example as a heart rate less than twelve beats per minute, was recorded. […] After 75 minutes, the carbachol infusion was stopped and the time required to return to normal sinus rhythm was recorded.", "note": "“And” between values parts separate entries of the source, which are not always exact repeats. Identical values can stand only once."}
{"smiles": "C[N+](C)(C)CCOC(N)=O.[Cl-]", "note": "[carbachol, carbamyl choline chloride]", "values": [{"measurement": "time to NSR (normal sinus rhythm)", "setting": "after carbachol infusion was stopped (after 75 minutes)", "value": "8 min and 3 min"}, {"measurement": "duration of ventricular asystole", "setting": "asystole defined as heart rate less than twelve beats per minute, pacemaker turned off 5 s at 60-second intervals", "value": "87 min and 75 min (2×) and 53 min and 24 min and 76 min (2×) and 47 min"}, {"measurement": "carbachol dose (infusion rate per body weight) achieving ventricular asystole", "setting": "intracoronary infusion", "value": "86.0 μg/kg/min and 12.2 μg/kg/min and 9.7 μg/kg/min and 20.9 μg/kg/min and 41.9 μg/kg/min and 10.7 μg/kg/min (2×) and 31.0 μg/kg/min"}, {"measurement": "infusion rate of carbachol necessary to achieve ventricular asystole", "setting": "intracoronary infusion, doses increased until ventricular asystole observed, combination arm: 1 mg propranolol then 0.5 mg carbachol bolus before infusion", "value": "1.72 mg/min and 0.44 mg/min (5×) and 0.88 mg/min and 0.62 mg/min"}]}
